From patent US9139842B2, “Methods and compositions for targeting sequences of interest to the chloroplast” (PIONEER HI-BRED INTERNATIONAL, INC., priority 2010, dated 2015) come the findings set out here.

As a reminder, the kcat is the number of substrate molecules converted per active site and unit of time at saturation.

One data set has as its system sorghum leaves plastids. The data set can be described thus: Agro-infiltration of sorghum leaves with DsRed fusions. It counts as cell-based.
The next data set concerns maize leaf chloroplasts. The data set can be described thus: Agro-infiltration of maize leaves with DsRed2 fusions, fluorescence microscopy. It counts as cell-based, Zea mays. The following applies: Example 16, assayed as described in Example 4. The text has this: A vector was constructed in which the portion of the maize HPPD (SEQ ID NO: 9) gene coding for the N-terminal 50 amino acids was fused to the gene coding for Discosoma sp. red fluorescence protein 2 (DsRed2) and inserted into a binary expression vector under control of the maize Rubisco activase promoter (Liu et al. (1996) Plant Physiol. 112(1): 43-51) and terminated with the Solanum tuberosum proteinase inhibitor II (pinII) terminator region (An et al. (1989) Plant Cell 1:115-122) with a hygromycin selection cassette. Both genes are between left and right border sequences from Agrobacterium.
A positive control vector was identical to the vector having the N-terminal 50 amino acids of maize HPPD described above except that the HPPD CTP was removed and the DsRed2 insert was fused to the chloroplast targeting peptide of Zea maize rubisco activase, while a negative control was DsRed2 with no targeting sequence. […] Agro-infiltration is a well described method (Kapila et. al. (1997) Plant Science, 122:101-108) of introducing an Agrobacterium cell suspension to plant cells of intact tissues so that reproducible infection and subsequent plant derived trans-gene expression may be measured or studied.
Leaves of 3-week old maize seedlings were infiltrated with the Agrobacterium, and examined by fluorescence microscopy two days later (Nikon Eclipse 80i, DsRed filter set). […]

The next data set concerns maize cell chloroplasts. The data set can be described thus: Agro-infiltration of maize leaves with G. max HPPD N-terminus AcGFP1 fusions. It counts as cell-based, Zea mays. The following applies: 4-week old maize seedlings, three days after infiltration. An excerpt: Vectors were constructed in which a portion of the gene coding for the G. max HPPD N-terminus was fused to a gene encoding Aequorea coerulescens green fluorescent protein 1 (AcGFP1) and inserted into a binary expression vector under control of the Arabidopsis Ubiquitin 10 promoter (Norris et al. (1993) Plant Mol. Biol. 21, 895-906) and terminated with the Glycine max Kunitz trypsin inhibitor 3 terminator region (NCBI accession S45092). Both genes were between left and right border sequences from Agrobacterium. One fusion contained amino acid residues 1-86 of the long Gm HPPD protein (SEQ ID NO:57). […]
A positive control vector was identical except that the AcGFP1 coding region was fused to the 6H1 synthetic chloroplast targeting peptide (U.S. Pat. No. 7,345,143), while a negative control was AcGFP1 with no targeting sequence. […] Agro-infiltration is a well described method (Kapila et. al. (1997) Plant Science, 122:101-108) of introducing an Agrobacterium cell suspension to plant cells of intact tissues so that reproducible infection and subsequent plant trans-gene expression may be measured or studied.
Leaves of 4-week old maize seedlings were infiltrated with the Agrobacterium, and examined by fluorescence microscopy three days later (Nikon Eclipse 80i, Narrow band-pass GFP filter set). […]

Data set [1] concerns G. max leaf cell chloroplasts. Put plainly: Transient expression of Gm HPPD-AcGFP fusion proteins in soy leaf discs. It counts as cell-based, Glycine max. An excerpt: Transient expression experiments indicate that the long HPPD protein (SEQ ID NO: 57) is imported to chloroplasts, while the short protein (SEQ ID NO: 59) remains in the cytosol. Plant expression cassettes were constructed fusing portions of the N terminus of Gm HPPD to an Aequorea coerulescens green fluorescent protein 1 (AcGFP1). One fusion contained amino acid residues 1-86 of the long Gm HPPD protein. Another contained residues 1-44 of the short HPPD protein (this corresponds to residues […] of the long protein). These cassettes were incorporated into binary vectors which also contained an untargeted DsRed2 expression cassette and introduced into A. tumefaciens strain AGL 1 and then used to infect leaf discs of G. max as described in Example 3 of U.S. Utility application Ser. No. 13/209,017, now issued U.S. Pat. No. 8,993,837, entitled “Chimeric Promoter and Methods of Use”, filed concurrently herewith and herein incorporated by reference in its entirety.

The test system of data set [2] is stably transformed soybean cells. The data set can be described thus: Immunogold localization of maize HPPD in stably transformed soybean leaf. Type of data set: cell-based, Glycine max. The following applies: anti-maize HPPD antibody. An excerpt:
Polyclonal antibodies were raised in rabbits against recombinant maize HPPD protein purified by nickel chelate affinity chromatography. Anti-HPPD antibodies were purified from serum by affinity chromatography on immobilized maize HPPD, and further purified by passage through a column of immobilized Rubisco, to remove a small fraction of antibodies that reacted with both HPPD and Rubisco. Leaf punches taken form stably transformed soybean plants expressing a gene encoding the maize HPPD protein (SEQ ID NO: 10) driven by an SCP1 synthetic promoter (U.S. Pat. No. 6,072,050) were fixed in 2% paraformaldehyde, 0.25% glutaraldehyde in 100 mM Na phosphate buffer, pH 7.0, for 3 hours at room temperature, dehydrated by passage through progressively higher concentrations of ethanol, embedded in LR White resin and cured at 55° C. for 48 hours. Sections (0.9 microns) were transferred onto Excell Adhesion glass microscope slides (Electron Microscopy Sciences). Immunolocalization was performed with the primary antibody being the double-purified anti-maize HPPD (1:200) and the secondary antibody goat anti-rabbit F(ab′) conjugated with gold particles (Aurion ultrasmall gold). Gold labeling was followed by silver enhancement (Aurion R-GENT SE-EM). […] Material was analyzed with a YAG detector for backscatter signal in a Hitachi 54800 scanning electron microscope. […]

The next data set deals with maize HPPD. Put plainly: HPPD activity assay of maize HPPD variants expressed in E. coli. The following applies: N-terminal truncated variants of maize wild-type HPPD, single measurement. It counts as biochemical, Zea mays. An excerpt:
Organellar targeting sequences are usually cleaved after the peptide enters the organelle. Previous investigators (Fritze I et al. (2004) Plant Physiology 134:1388-1400; Yang C et al. (2004) Biochemistry 43: 10414-10423) have shown that native mature maize HPPD begins at either ala17 or ala23. Variants of the wild-type maize HPPD protein coding region were created with various lengths of the amino terminus removed. The sequences were expressed in E. coli and tested for activity and stability. In each case a methionine start codon was added to the truncated sequence. Proteins were designated by the position of their N-terminal amino acid (all alanines) as in SEQ ID NO: 9. All N-terminal truncated proteins retained the HPPD activity. […] Assaying HPPD activity was carried out as described in Example 1 of Provisional Application 61/401,456, filed Aug. 13, 2010, Compositions and Methods Comprising Sequences having Hydroxyphenylpyruvate Dioxygenase (HPPD) Activity, herein incorporated by reference in it entirety.

“MPPTPTTAAATGAGAAAAVTPEHAAFRLVGHRRFVRFNPRSDRFHTLAFHHVE [53 amino acid consensus sequence]”: the DsRed reporter localization result in the data set with sorghum leaves plastids was “efficiently targeted the DsRed reporter protein to plastids”. Besides, the DsRed localization result with maize leaf chloroplasts was “effectively targeted DsRed to maize plastids”.

For “residues 42-86: residues 1-44 of the short Gm HPPD protein (42-86 of the long protein) fused to AcGFP1”, in the data set with maize cell chloroplasts, the “AcGFP marker protein localization” value was “delivered the protein to the cytosol”. The “AcGFP green fluorescence localization” value in data set [1] is reported as “green fluorescence is visible only in the cytoplasm”.

B1: maize HPPD: Maize WT HPPD (from WO1997049816 SEQ ID NO: 11), SEQ ID NO: 10 (protein)
chain: MPPTPTAAAAGAAVAAASAAEQAAFRLVGHRNFVRFNPRSDRFHTLAFHHVELWCADAASAAGRFSFGLGAPLAARSDLSTGNSAHASLLLRSGSLSFLFTAPYAHGADAATAALPSFSAAAARRFAADHGLAVRAVALRVADAEDAFRASVAAGARPAFGPVDLGRGFRLAEVELYGDVVLRYVSYPDGAAGEPFLPGFEGVASPGAADYGLSRFDHIVGNVPELAPAAAYFAGFTGFHEFAEFTTEDVGTAESGLNSMVLANNSENVLLPLNEPVHGTKRRSQIQTFLDHHGGPGVQHMALASDDVLRTLREMQARSAMGGFEFMAPPTSDYYDGVRRRAGDVLTEAQIKECQELGVLVDRDDQGVLLQIFTKPVGDRPTLFLEIIQRIGCMEKDEKGQEYQKGGCGGFGKGNFSQLFKSIEDYEKSLEAKQAAAAAAAQGS
modifications: Zea mays
Regarding B1, in data set [2], the gold labeling localization result is “mainly in cytosol and nuclei, but also in chloroplasts”.

B2: Maize wt: wild-type maize HPPD protein (SEQ ID NO: 9) expressed in E. coli (protein)
chain: MGPTPTAAAAGAAVAAASAAEQAAFRLVGHRNFVRFNPRSDRFHTLAFHHVELWCADAASAAGRFSFGLGAPLAARSDLSTGNSAHASLLLRSGSLSFLFTAPYAHGADAATAALPSFSAAAARRFAADHGLAVRAVALRVADAEDAFRASVAAGARPAFGPVDLGRGFRLAEVELYGDVVLRYVSYPDGAAGEPFLPGFEGVASPGAADYGLSRFDHIVGNVPELAPAAAYFAGFTGFHEFAEFTTEDVGTAESGLNSMVLANNSENVLLPLNEPVHGTKRRSQIQTFLDHHGGPGVQHMALASDDVLRTLREMQARSAMGGFEFMAPPTSDYYDGVRRRAGDVLTEAQIKECQELGVLVDRDDQGVLLQIFTKPVGDRPTLFLEIIQRIGCMEKDEKGQEYQKGGCGGFGKGNFSQLFKSIEDYEKSLEAKQAAAAAAAQGS
modifications: Zea mays
For B2, the “kcat” value with maize HPPD turned out to be 2.77 s⁻¹.
